Paper PMC10787068, “Targeting the Mitochondrial Chaperone TRAP1 Alleviates Vascular Pathologies in Ischemic Retinopathy” (Advanced Science, 2023)
Entries after “also recorded” stand apart in the source; their conditions may differ.

Columns and labels:
[1] = Normal cell cytotoxicity in primary Müller cells (trypan blue staining); assay type: cell-based; conditions: mouse, primary Müller cells from mouse retina, 24 hr under hypoxia, n = 4, mean ± SEM
Method: Mouse primary Müller cells were isolated as reported previously.^[ [43] ^] In brief, retinas were isolated from P5–P7 mice and dissociated using a Papain Dissociation Kit (Worthington Industries; Columbus, OH, USA). Collected retinal cells were incubated on a plate coated with 0.1% gelatin (Sigma), and the culture media (DMEM supplemented with 10% FBS and 1% penicillin‐streptomycin) was changed once every 2 days. Cells were subcultured into a new plate and incubated for another 7 days. Adherent cells were largely primary Müller cells, as confirmed by immunocytochemical analysis using an anti‐glutamine synthetase antibody (Millipore). […]
bar, 500 μm. B) Quantification of avascular and neovascular tuft areas in OIR mice intravitreally injected with MitoQ (n = 5 mice/group). […] Harvested retinal samples were whole-mounted and analyzed as in (A). […]
Scale bar, 500 μm. D) Quantification of avascular and neovascular tuft areas in OIR mice topically treated with MitoQ (n = 6 mice/group). […]
their cytotoxic activities were analyzed in four independent experiments by trypan blue staining. The calculated IC50 values are presented in the normal cell cytotoxicity column in Table 1. […] A 3D culture of human corneal epithelium (MCTT HCE) was incubated with 2 mM TRAP1 inhibitors and analyzed by H&E staining.
The culture thickness (n = 5) was measured and analyzed (Table S1). […]

OIR mice = test: Oxygen‐induced retinopathy (OIR) mouse model, retinal vasculature (CD31 whole‐mount); assay type: in vivo
Method: Figure 7 Normalized retinal vascularization upon topical application of TRAP1 inhibitors. A) HIF1α degradation induced by TRAP1 inhibitors. MIO‐M1 cells were incubated with various concentrations of TRAP1 inhibitors as indicated for 6 h under hypoxia and analyzed by western blotting. B) Quantification of HIF1α protein degradation. The HIF1α band intensities in western blot data obtained as in (A) were analyzed and compared. The data are mean ± SEM from four independent experiments. C) Vascular structure of P17 OIR mouse retinas after topical drug application. Vehicle and 2 mM TRAP1 inhibitors were topically administered to the left and right eyes, respectively, of OIR mice at P12 once per day for 5 days. At P17, mice were sacrificed and analyzed by whole‐mount staining with an anti‐CD31 antibody and confocal microscopy. Scale bar, 500 µm. D) Quantification of avascular areas and neovascular tuft. Retinal images collected as in (C) were quantitatively analyzed (n = 5 mice/group). Data information: Data are expressed as mean ± SEM. Student t‐test, ^*** P < 0.001; ^* […].
To induce OIR (Figure 1A), mouse pups were exposed to 75% oxygen at postnatal day 7 (P7) until P12 together with their mothers in a hyperoxic chamber (InVivo Cabinet Model 15; Coy Laboratory; Grass Lake, MI, USA). Hyperoxia‐exposed pups were returned to room air at P12 with nursing mothers until P17. At P17, mice were sacrificed, and eyes were enucleated.
For intravitreal injection, MitoQ was injected into the vitreous cavity using a Nanoliter 2000 microinjector (World Precision Instruments; Sarasota, FL, USA) fitted with glass capillary pipettes under anesthesia. In total, 1 µl MitoQ (0.1 mg/ml) was delivered into the right eye of an OIR mouse once at P12. The contralateral eye was injected with vehicle (0.1% DMSO prepared in distilled water) as a control. […]
Fixed eyes were dissected to isolate retinas under a microscope. […] Fluorescence images were acquired using an Axio Zoom fluorescence microscope (Zeiss; Oberkochen, Germany) or a LSM780 or LSM980 confocal microscope (Zeiss). […]

COC1=C(OC)C(=O)C(CCCCCCCCCC[P+](c2ccccc2)(c2ccccc2)c2ccccc2)=C(C)C1=O [MitoQ, mitoquinone]
IC50 at 24 h [1]: 22 µM | avascular and neovascular tuft areas in OIR mice (OIR mice; intravitreal injection, 1 µl of 0.1 mg/ml once at P12, analysed at P17, n = 5 mice/group): significantly reduced; also recorded: dramatically reduced | avascular and neovascular tuft areas in OIR mice (OIR mice; topical, 2 mM once per day for 5 days from P12, analysed at P17, n = 5 mice/group): reduced | avascular and neovascular tuft areas in OIR mice (OIR mice; topical, 10 μl of 1 mM three times daily from P12 to P17, n = 6 mice/group): reduced; also recorded: potent activity
